Results from US4396770A, “1-[3-(6-Fluoro-1,2-benzisoxazol-3-yl)propyl]-4-hydroxy -4-phenylpiperidines” (Hoechst-Roussel Pharmaceuticals Inc., priority 1982, dated 1983).
Read-outs that look alike come from different tables or passages of the source.

Tests used:
[1] = test system: phenyl-para-quinone induced writhes; assay: phenyl-para-quinone writhing assay in mice (analgesia); format: in vivo; settings: Mus musculus, sc, subcutaneous, estimated dose for 50% reduction in phenyl-para-quinone induced writhes, read-out: Analgesic Activity (ED50 mg/kg)
Text: Exptl. Biol. Med., 95, 729 (1953)]. Presented in Table 1 is the analgesic activity of representative compounds of the invention and two standards, expressed as the estimated subcutaneous dose at which the mice experience a 50% reduction in phenyl-para-quinone induced writhes, i.e., the ED50 -value.

[2] = test system: apomorphine-induced climbing; assay: climbing mice assay (antipsychotic activity); format: in vivo, CK-1 male mice; settings: Mus musculus, ip
Protocol: The 1-[3-(6-fluoro-1,2-benzisoxazol-3-yl)propyl]-4-hydroxy-4-phenylpiperidinesof the present invention are useful for treating psychoses by virtue of their ability to block apomorphine-induced climbing in mammals.
Antipsychotic activity is determined in the climbing mice assay by a method similar to those described by P. Protais et al., Psychopharmacol., 50, 1 (1976) and B. Costall, Eur. J. Pharmacol., 50, 39 (1978).
The subject CK-1 male mice (23-27 grams) are group-housed under standard laboratory conditions. The mice are individually placed in wire mesh stick cages (4"×4"×10") and are allowed one hour for adaptation and exploration of the new environment. Then apomorphine is injected subcutaneously at 1.5 mg/kg, a dose causing climbing in all subjects for 30 minutes. Compounds to be tested for antipsychotic activity are injected intraperitoneally 30 minutes prior to the apomorphine challenge at a screening dose of 10 mg/kg.
For evaluation of climbing, 3 readings are taken at 10, 20 and 30 minutes after apomorphine administration according to the following scale:
Mice consistently climbing before the injection of apormorphine will be discarded.
With full-developed apomorphine climbing, the animals are hanging onto the cage walls, rather motionless, over longer periods of time. By contrast, climbs due to mere motor stimulation usually only last a few seconds.
The climbing scores are individually totaled (maximal score: 6 per mouse over 3 readings) and the total score of the control group (vehicle intraperitoneally--apomorphine subcutaneously) is set to 100%. ED50 values with 95% confidence limits are calculated by a Linear Regression Analysis. Antipsychotic activity expressed as the ED50 value of representative 1-[3-(6-fluoro-1,2-benzisoxazol-3-yl)propyl]-4-hydroxy-4-phenylpiperidinesas well as two standard antipsychotics are presented in Table II.

[3] = read-out: Antipsychotic Activity ED50 (mg/kg)

## CC(C)=CCN1CCC2(C)c3cc(O)ccc3CC1C2C (centres unmarked) [pentazocin, reference compound]
[1]
  ED50: 1.3 mg/kg

## Cc1ccc(C2(O)CCN(CCCc3noc4cc(F)ccc34)CC2)cc1 [Example 6]
[2]; [3]
  ED50: 0.56 mg/kg

## O=C(CCCN1CCC(O)(c2ccc(Cl)cc2)CC1)c1ccc(F)cc1 [haloperidol, reference compound]
[2]; [3]
  ED50: 0.11 mg/kg

## Cl.OC1(c2cccc(C(F)(F)F)c2)CCN(CCCc2noc3cc(F)ccc23)CC1 [Example 8, 1-[3-(6-Fluoro-1,2-benzisoxazol-3-yl)propyl]-4-hydroxy-4-(3-trifluoromethylphenyl)piperidine hydrochloride]
[2]; [3]
  ED50: 0.25 mg/kg
[1]
  ED50: 1 mg/kg

## OC1(c2ccc(C(F)(F)F)cc2)CCN(CCCc2noc3cc(F)ccc23)CC1 [Example 9, 1-[3-(6-Fluoro-1,2-benzisoxazol-3-yl)propyl]-4-hydroxy-4-(4-trifluoromethylphenyl)piperidine]
[2]; [3]
  ED50: 3.1 mg/kg

## COc1ccc(C2(O)CCN(CCCc3noc4cc(F)ccc34)CC2)cc1.Cl [Example 7, 1-[3-(6-Fluoro-1,2-benzisoxazol-3-yl)propyl]-4-hydroxy-4-(4-methoxyphenyl)piperidine hydrochloride]
[1]
  ED50: 3.8 mg/kg

## Cl.OC1(c2cccc(Cl)c2)CCN(CCCc2noc3cc(F)ccc23)CC1 [Example 2, 4-(3-Chlorophenyl)-1-[3-(6-fluoro-1,2-benzisoxazol-3-yl)propyl]-4-hydroxypiperidine hydrochloride]
[2]; [3]
  ED50: 0.8 mg/kg
[1]
  ED50: 0.8 mg/kg

## OC1(c2ccccc2)CCN(CCCc2noc3cc(F)ccc23)CC1 [Example 1, 1-[3-(6-Fluoro-1,2-benzisoxazol-3-yl)propyl]-4-hydroxy-4-phenylpiperidine]
[2]; [3]
  ED50: 9.6 mg/kg
[1]
  ED50: 5.9 mg/kg

## CCC(=O)O[C@](Cc1ccccc1)(c1ccccc1)[C@H](C)CN(C)C [propoxyphene, reference compound]
[1]
  ED50: 3.9 mg/kg

## OC1(c2ccc(F)cc2)CCN(CCCc2noc3cc(F)ccc23)CC1 [Example 4, 1-[3-(6-Fluoro-1,2-benzisoxazol-3-yl)propyl]-4-(4-fluorophenyl)-4-hydroxypiperidine]
[2]; [3]
  ED50: 0.8 mg/kg
[1]
  ED50: 6.2 mg/kg

## OC1(c2ccc(Cl)cc2)CCN(CCCc2noc3cc(F)ccc23)CC1 [Example 3, 4-(4-Chlorophenyl)-1-[3-(6-fluoro-1,2-benzisoxazol-3-yl)propyl]-4-hydroxypiperidine]
[2]; [3]
  ED50: 0.51 mg/kg

## Cc1ccccc1C1(O)CCN(CCCc2noc3cc(F)ccc23)CC1.Cl [Example 5, 1-[3-(6-Fluoro-1,2-benzisoxazol-3-yl)propyl]-4-hydroxy-4-(2-methylphenyl)piperidine hydrochloride]
[2]; [3]
  ED50: 8.3 mg/kg

## CCN1CCCC1CNC(=O)c1cc(S(N)(=O)=O)ccc1OC (centres unmarked) [sulpiride, reference compound]
[2]; mice, intraperitoneal 30 minutes prior to apomorphine 1.5 mg/kg subcutaneously, climbing scores at 10, 20 and 30 minutes, read-out: Antipsychotic Activity ED50
  ED50: 4.5 mg/kg
